# Measured values from patent US20240358783A1, “METHOD AND SYSTEM FOR THE TRANSDERMAL ADMINISTRATION OF A P[…]” (LYFE CHNG, LLC, priority 2021, published 2024).
# Assay: skin flux of psilocin, inventors' testing
# Assay type: in vitro ADME
# Method: With psilocin, specifically, the Madsen et al. findings provide a starting point for identifying optimal plasma psilocin levels that correlate with a desired 5-HT2A receptor occupancy levels. According to the inventors' testing, the skin flux of psilocin is in the range of 1 μg/cm^2/hr to […], on average 5 μg/cm^2/hr. With patch area of 50 cm^2 the dose per hour input ranges from 50 μg/hr/patch to 500 μg/hr/patch. At this patch size, the high end of the hourly input is approaching that of a 1-mg intravenous application. The daily dose ranges from 1.2 mg/day/patch to 12 mg/day/patch. At a skin flux of 5 μg/cm^2/hr, the hourly input is 250 μg/hr/patch and the daily dose is 6 mg/day/patch. A suitable transdermal system for accomplishing the aforementioned delivery profile can be constructed as described above.
# [1] = patch area of 50 cm^2, at a skin flux of 5 μg/cm^2/hr
compound,measurement,setting,value
CN(C)CCc1c[nH]c2cccc(O)c12 [psilocin],"skin flux of psilocin, on average","average, according to the inventors' testing",5 μg/cm^2/hr
same,daily dose,[1],6 mg/day/patch
same,hourly input,[1],250 μg/hr/patch
